From patent publication US8846694B2, “Pyrrolidone derivatives for use as MetAP-2 inhibitors” (Merck Patent GmbH, priority 2008, dated 2014) come the findings set out here.

pIC50: −log10 of the molar value. Counter-ions that a name gives are not always drawn.

The experiment concerns the target MetAP-2 (Homo sapiens, UniProt P50579). Briefly: MetAP-2 activity measurement (coupled enzymatic reactions, substrate Met-Arg-Ser, photometric at 450 nm). Type of experiment: biochemical. The note with it: read-out: IC50 enzyme (Inhibition of MetAP-2). As to the method: MetAP-2 Activity Measurement
The MetAP-2 activity is determined by coupling enzymatic reactions. The tripeptide Met-Arg-Ser (MAS) is employed as substrate. The methionine liberated is firstly converted into Metox and H2O2 by L-aminooxidase (AAO). In the second step, the peroxidase (POD) with the aid of the H2O2 catalyses the oxidation of the leukodye dianisidine to dianisidineox, the increase of which is detected photometrically at 450 nm.
MetAP-2 activity can be recorded continuously as kinetics. The reaction scheme illustrates that one mol of dianisidineox is formed per mol of methionene. The MetAP-2 enzyme activity can therefore be calculated directly as Δ absorption per time unit. […] of the MetAP-2 activity (mol of Met/time unit) is possible with the aid of the dianisidineox extinction coefficient.
The change in extinction per time unit is depicted graphically and a slope calculation is carried out in the visually linear region of the reaction.

Chain of MetAP-2 (P50579 whole entry, species assumed): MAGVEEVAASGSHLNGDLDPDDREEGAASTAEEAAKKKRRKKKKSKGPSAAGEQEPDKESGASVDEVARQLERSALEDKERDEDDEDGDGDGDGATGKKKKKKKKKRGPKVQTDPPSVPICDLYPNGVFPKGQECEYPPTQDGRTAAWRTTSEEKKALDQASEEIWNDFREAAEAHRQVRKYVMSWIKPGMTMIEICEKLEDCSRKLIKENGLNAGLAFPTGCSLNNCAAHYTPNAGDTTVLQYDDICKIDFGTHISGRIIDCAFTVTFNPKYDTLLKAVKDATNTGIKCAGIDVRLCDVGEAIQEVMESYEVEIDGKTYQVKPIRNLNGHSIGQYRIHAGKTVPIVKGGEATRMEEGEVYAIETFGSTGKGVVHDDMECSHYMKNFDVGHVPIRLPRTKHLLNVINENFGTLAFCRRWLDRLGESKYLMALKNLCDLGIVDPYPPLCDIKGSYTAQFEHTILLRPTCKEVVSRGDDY

A word on the pIC50: it is the negative decadic logarithm of the IC50, by convention in mol/L. On to “2-[1-(1H-imidazol-4-yl)meth-(Z)-ylidene]-5-[(R)-1-(9H-purin-6-yl)pyrrolidin-2-ylmethoxy]-3,4-dihydro-2H-naphthalen-1-one [A15]”, for which the pIC50 is 6.00 to 8.00. For `Clc1ccccc1CCC1CCCN1c1ncnc2[nH]cnc12` (racemic) [A5, 6-{2-[2-(2-chlorophenyl)ethyl]pyrrolidin-1-yl}-9H-purine] the value was 5.00 to 6.00; for `c1ccc2c(OC[C@H]3CCCN3c3ncnc4[nH]cnc34)ccc(CN3CCOCC3)c2c1` [A3, 6-[(R)-2-(4-morpholin-4-ylmethylnaphthalen-1-yloxymethyl)pyrrolidin-1-yl]-9H-purine], 6.00 to 8.00.

For the molecule `FC1(F)C[C@H](COc2cccc3ccccc23)N(c2ncnc3[nH]cnc23)C1` [A8, 6-[(R)-4,4-difluoro-2-(naphthalen-1-yloxymethyl)pyrrolidin-1-yl]-9H-purine], the pIC50 was 5.00 to 6.00. `Clc1cccc(/C=C/[C@H]2CCCN2c2ncnc3[nH]cnc23)c1` [A11, 6-{(R)-2-[(E)-2-(3-chlorophenyl)vinyl]pyrrolidin-1-yl}-9H-purine]: the pIC50 is 5.00 to 6.00. `C(=C\[C@H]1CCCN1c1ncnc2[nH]cnc12)/c1cccc2ccccc12` [A12, 6-[(R)-2((E)-2-naphthalen-1-ylvinyl)pyrrolidin-1-yl]-9H-purine]: the negative-log IC50 (pIC50) is 5.00 to 6.00. As to `O=C(NC1CC1)c1cc(OC[C@H]2CCCN2c2ncnc3[nH]cnc23)c2ccccc2n1` [A14, N-cyclopropyl-4-[(R)-1-(9H-purin-6-yl)pyrrolidin-2-ylmethoxy]quinoline-2-carboxamide hydrochloride], the pIC50 is 5.00 to 6.00.

As to `Cc1nc2c(N3CCC[C@@H]3COc3ccccc3Cl)ncnc2[nH]1` [A16, 6-[(R)-2-(2-Chlorophenoxymethyl)pyrrolidin-1-yl]-8-methyl-9H-purine], the pIC50 is less than 5.00. With `CCc1nc2c(N3CCC[C@@H]3COc3ccccc3Cl)ncnc2[nH]1` [A17, 6-[(R)-2-(2-Chlorophenoxymethyl)pyrrolidin-1-yl]-8-ethyl-9H-purine HCl], the pIC50 is less than 5.00. For the molecule `Brc1nc2c(N3CCC[C@@H]3COc3cccc4ccccc34)ncnc2[nH]1` [A18, 8-Bromo-6-[(R)-2-(naphthalen-1-yloxymethyl)-pyrrolidin-1-yl]-9H-purine], the pIC50 is less than 5.00.

`CN(C[C@H]1CCCN1c1ncnc2[nH]cnc12)c1cccc(F)c1` [A21]: the pIC50 was less than 5.00. For the molecule `Clc1ccccc1OC[C@H]1CCCN1c1ncnc2ncccc12` [A22], the pIC50 is less than 5.00. As to `c1ccc2c(OC[C@H]3CCCN3c3ncnc4ncccc34)cccc2c1` [A23, 4-[(R)-2-(Naphthalen-1-yloxymethyl)pyrrolidin-1-yl]pyrido[2,3-d]pyrimidine], the negative logarithm of the IC50 (pIC50) was less than 5.00. The result for `Nn1ccc2c(N3CCC[C@@H]3COc3ccccc3F)ncnc21` [A24, 4-[(R)-2-(2-Fluorophenoxymethyl)pyrrolidin-1-yl]pyrrolo[2,3-d]pyrimidin-7-ylamine] reads less than 5.00; that for `Nn1cnc2c(N3CCC[C@@H]3COc3cccc4ccccc34)ncnc21` [A25, 6-[(R)-2-(Naphthalen-1-yloxymethyl)pyrrolidin-1-yl]purin-9-ylamine], 5.00 to 6.00; that for `F[C@@H]1C[C@H](COc2cccc3ccccc23)N(c2ncnc3[nH]cnc23)C1` [A26, 6-[(2R,4R)-4-Fluoro-2-(naphthalen-1-yl-oxymethyl)pyrrolidin-1-yl]-9H-purine], less than 5.00. Regarding `F[C@@H]1C[C@H](COc2ccccc2Cl)N(c2ncnc3[nH]cnc23)C1` [A27, 6-[(2R,4R)-2-(2-Chlorophenoxymethyl)-4-fluoro-pyrrolidin-1-yl]-9H-purine], the pIC50 is less than 5.00. For the molecule `F[C@H]1C[C@H](COc2cccc3ccccc23)N(c2ncnc3[nH]cnc23)C1` [A28, 6-[(2R,4S)-4-Fluoro-2-(naphthalen-1-yl-oxymethyl)pyrrolidin-1-yl]-9H-purine], the pIC50 was 5.00 to 6.00. In the case of `O[C@@H]1C[C@H](COc2cccc3ccccc23)N(c2ncnc3[nH]cnc23)C1` [A30, (3R,5R)-5-(Naphthalen-1-yloxymethyl)-1-(9H-purin-6-yl)pyrrolidin-3-ol], the pIC50 was less than 5.00. For `O=c1ccc(-c2cc(F)cc(F)c2)nn1CC1CCCN1c1ncnc2[nH]cnc12` (stereo not shown) [A32, 6-(3,5-Difluorophenyl)-2-[1-(9H-purin-6-yl)-pyrrolidin-2-ylmethyl]-2H-pyridazin-3-one], the pIC50 is less than 5.00. With `CC(=O)Nc1nc2ccc(CNC(=O)Nc3cc(C(F)(F)F)ccc3OCC3CCCN3c3ncnc4[nH]cnc34)cc2[nH]1` (stereo not shown) [A33, N-[6-(3-{2-[1-(9H-Purin-6-yl)pyrrolidin-2-yl-methoxy]-5-trifluoromethylphenyl}ureido-methyl)-1H-benzimidazol-2-yl]acetamide], the pIC50 is less than 5.00.

As for `CNC(=O)c1cc(Oc2ccc(CNC(=O)Nc3cc(C(F)(F)F)ccc3OCC3CCCN3c3ncnc4[nH]cnc34)cc2)ccn1` (stereo not shown) [A34, N-Methyl-4-[4-(3-{2-[1-(9H-purin-6-yl)pyrrolidin-2-ylmethoxy]-5-trifluoromethyl-phenyl}ureidomethyl)phenoxy]pyridine-2-carboxamide], the pIC50 is less than 5.00. For `c1ccc2c(c1)oc1cc(OC[C@H]3CCCN3c3ncnc4[nH]cnc34)ccc12` [A37] the value was 5.00 to 6.00; for `c1ccc2c(c1)[nH]c1cccc(OC[C@H]3CCCN3c3ncnc4[nH]cnc34)c12` [A38, 4-[(R)-1-(9H-Purin-6-yl)pyrrolidin-2-ylmethoxy]-9H-carbazole], 6.00 to 8.00. In the case of `CCCCn1c(C)c(C(=O)OCC)c2cc(OC[C@H]3CCCN3c3ncnc4[nH]cnc34)ccc21` [A39, Ethyl 1-butyl-2-methyl-5-[(R)-1-(9H-purin-6-yl)-pyrrolidin-2-ylmethoxy]-1H-indole-3-carboxylate], the pIC50 is 5.00 to 6.00. Consider `c1cc(OC[C@H]2CCCN2c2ncnc3[nH]cnc23)c2cc[nH]c2c1` [A40, 6-[(R)-2-(1H-lndol-4-yloxymethyl)pyrrolidin-1-yl]-9H-purine], for which the pIC50 was 5.00 to 6.00. As to `CC(=O)c1cc2cccc(OC[C@H]3CCCN3c3ncnc4[nH]cnc34)c2o1` [A41, 1-{7-[(R)-1-(9H-Purin-6-yl)pyrrolidin-2-yl-methoxy]benzofuran-2-yl}ethanone], the pIC50 was 6.00 to 8.00.

Turning to `c1cnc2c(OC[C@H]3CCCN3c3ncnc4[nH]cnc34)ccc(CN3CCCCC3)c2c1` [A42, 5-Piperidin-1-ylmethyl-8-[(R)-1-(9H-purin-6-yl)-pyrrolidin-2-ylmethoxy]quinoline formate], the pIC50 is 5.00 to 6.00. For `c1cnc2c(OC[C@H]3CCCN3c3ncnc4[nH]cnc34)cccc2c1` [A43, 8-[(R)-1-(9H-Purin-6-yl)pyrrolidin-2-yl-methoxy]quinoline], the pIC50 is 5.00 to 6.00.

For `COc1cc2c(OC[C@H]3CCCN3c3ncnc4[nH]cnc34)ncnc2cc1OCc1ccccc1` [A45, 7-Benzyloxy-6-methoxy-4-[(R)-1-(9H-purin-6-yl)-pyrrolidin-2-ylmethoxy]quinazoline], the pIC50 was less than 5.00.

`NCCOCCOCCNCc1ccc(OC[C@H]2CCCN2c2ncnc3[nH]cnc23)c2ccccc12` [A47, 2-{2-[2-({4-[(R)-1-(9H-Purin-6-yl)pyrrolidin-2-yl-methoxy]naphthalen-1-ylmethyl}-amino)ethoxy]ethoxy}ethylamine]: the pIC50 is 5.00 to 6.00.
